Values of other authors, collected in US11458160B2, “Food supplements for use in the prophylaxis and treatment of migraine” (CRISTALFARMA S.R.L., priority 2017, dated 2022).

Tests used:
[1] = magnesium sulphate intravenously, same amount
[2] = weeks 9-12; 600 mg magnesium per day orally for 12 weeks; 81 patients; p<0.05

SMILES | efficacy compared with intravenous ketorolac [1] | reduction of attack frequency compared to the baseline [2] [%]
O=S(=O)([O-])[O-].[Mg+2] [magnesium sulphate] | as effective as an intravenously administered NSAID such as ketorolac | –
O=C([O-])CC(O)(CC(=O)[O-])C(=O)[O-].O=C([O-])CC(O)(CC(=O)[O-])C(=O)[O-].[Mg+2].[Mg+2].[Mg+2] [magnesium, tri-magnesium di-citrate] | – | 41.6
